Tests used:
[1] = system: Blumeria graminis f. sp. hordei; test: Test Example D: Powdery mildew on barley; conditions: for Test D control value class: class of control value; for pest or weed control at 250 µg/mL: Blumeria graminis, in Hordeum vulgare, topical, read-out: Test D control value class
Phytophthora infestans = test: whole plant or invertebrate; format: in vivo; conditions: for Test F control value class: class of control value; for pest or weed control at 250 µg/mL: Phytophthora infestans, in Solanum lycopersicum, topical, read-out: Test F control value class
Puccinia recondita = test: Test Example E: Brown rust on wheat; format: in vivo; conditions: for Test E control value class / pest or weed control at 250 µg/mL: class of control value; for pest or weed control at 250 µg/mL: Puccinia recondita, topical, read-out: Test E control value class
[2] = system: Colletotrichum orbiculare; test: Test Example H: Anthracnose on cucumber; conditions: for Test H control value class: Anthracnose on cucumber (Sagami Hanjiro), 2.5 ml/pot, assessed 6 to 10 days after inoculation; for Test H control value: 6 to 10 days after inoculation; for pest or weed control at 250 ppm: Colletotrichum orbiculare, in Cucumis sativus, topical, read-out: Test H control value class
Alternaia brassicicola = test: Test Example C: Alternaria sooty spot on cabbage; format: in vivo; conditions: for Test C control value class / pest or weed control at 250 µg/mL: class of control value; for pest or weed control at 250 µg/mL: Brassica oleracea, topical, read-out: Test C control value class
Source text: Seeds of a test plant (cabbage variety: Shikidori) were planted and cultivated until the cotyledons extended.
<Control Value> Control value=100{1−(n/3)}

Plasmopara viticola = test: Test Example G: Downy mildew on vine; conditions: for Test G control value class: Downy mildew on vine (Neomuscat), 2.5 ml/pot, assessed 7 to 10 days after inoculation; for Test G control value: 7 to 10 days after inoculation; for pest or weed control at 250 ppm: Plasmopara viticola, topical, read-out: Test G control value class
Botrytis cinerea = test: Test Example B: Gray mold on tomato; conditions: for Test B control value class: class of control value; for pest or weed control at 250 µg/mL: Botrytis cinerea, in Solanum lycopersicum, topical, read-out: Test B control value class
Magnaporthe grisea = test: whole plant or invertebrate; format: in vivo; conditions: for Test A control value class: class of control value; for pest or weed control at 250 µg/mL: Pyricularia oryzae, in Oryza sativa, read-out: Test A control value class
[3] = Alternaria sooty spot on cabbage
[4] = Powdery mildew on barley, control value class
[5] = Late blight on tomato, control value class
[6] = Brown rust on wheat, control value class
[7] = Anthracnose on cucumber, 250 ppm spray
[8] = Alternaria sooty spot on cabbage, control value class
[9] = Downy mildew on vine, 250 ppm spray
[10] = Gray mold on tomato, control value class
[11] = Blast on rice, control value class
[12] = 250 ppm drug solution sprayed on test plant
[13] = 250 ppm drug solution sprayed (2.5 ml/pot), cucumber Sagami Hanjiro
[14] = 250 ppm drug solution sprayed (2.5 ml/pot), grape Neomuscat

| SMILES | Test D control value class ([1]; Powdery mildew on barley) | Test F control value class (Phytophthora infestans; Late blight on tomato) | Test E control value class (Puccinia recondita; Brown rust on wheat) | Test H control value class ([2]; 250 ppm spray) | Test C control value class (Alternaia brassicicola; [3]) | Test G control value class (Plasmopara viticola; 250 ppm spray) | Test B control value class (Botrytis cinerea; Gray mold on tomato) | Test A control value class (Magnaporthe grisea; Blast on rice) | Test D control value [1, 4] | Test F control value (Phytophthora infestans; [5]) | Test E control value (Puccinia recondita; [6]) | Test H control value [2, 7] | Test C control value (Alternaia brassicicola; [8]) | Test G control value (Plasmopara viticola; [9]) | Test B control value (Botrytis cinerea; [10]) | Test A control value (Magnaporthe grisea; [11]) | further results |
| --- | --- | --- | --- | --- | --- | --- | --- | --- | --- | --- | --- | --- | --- | --- | --- | --- | --- |
| CCn1c(-c2c(F)cc(F)cc2F)c(CNOC)cc(Cl)c1=O [compound 112] | H (more than 50% control value) | L (50% or less control value) | H (more than 50% control value) | H (more than 50% control value) | H (more than 50% control value) | L (50% or less control value) | H (more than 50% control value) | L (50% or less control value) | – | – | – | – | – | – | – | – | – |
| CCc1cc(Br)c(=O)n(CC)c1-c1ccc(OC)cc1Br [compound 346] | – | – | – | – | – | – | – | – | L (50% or less control value) | L (50% or less control value) | H (more than 50% control value) | H (more than 50% control value) | H (more than 50% control value) | H (more than 50% control value) | H (more than 50% control value) | H (more than 50% control value) | – |
| CCCc1cc(Br)c(=O)n(CC)c1-c1ccc(OC)cc1Br [compound 382] | – | – | – | – | – | – | – | – | – | – | – | – | – | – | – | – | Test D control value [1, 12]: L (50% or less control value); Test F control value (Phytophthora infestans; [12]): H (more than 50% control value); Test E control value (Puccinia recondita; [12]): H (more than 50% control value); Test H control value [2, 13]: H (more than 50% control value); Test C control value (Alternaia brassicicola; [12]): H (more than 50% control value); Test G control value (Plasmopara viticola; [14]): H (more than 50% control value); Test B control value (Botrytis cinerea; [12]): H (more than 50% control value); Test A control value (Magnaporthe grisea; [12]): H (more than 50% control value) |
| CCn1c(-c2ccc(OC)cc2F)c(CC(C)C)cc(Br)c1=O [compound 116] | H (more than 50% control value) | L (50% or less control value) | H (more than 50% control value) | H (more than 50% control value) | H (more than 50% control value) | H (more than 50% control value) | H (more than 50% control value) | H (more than 50% control value) | – | – | – | – | – | – | – | – | – |
| CCCOC(C)(c1cc(Cl)c(=O)n(CC)c1-c1c(F)cc(OC)cc1F)C(C)C (centres unmarked) [compound 242] | – | – | – | – | – | – | – | – | L (50% or less control value) | L (50% or less control value) | L (50% or less control value) | L (50% or less control value) | H (more than 50% control value) | L (50% or less control value) | L (50% or less control value) | L (50% or less control value) | – |
| CCn1c(-c2ccc(F)cc2Cl)c(C2CCCC2)ccc1=O [compound 219] | – | – | – | – | – | – | – | – | H (more than 50% control value) | L (50% or less control value) | H (more than 50% control value) | L (50% or less control value) | H (more than 50% control value) | L (50% or less control value) | H (more than 50% control value) | H (more than 50% control value) | – |
| CCC(OC)c1cc(Cl)c(=O)n(CC)c1-c1c(F)cccc1F (centres unmarked) [Compound No. 25, 3-chloro-6-(2,6-difluorophenyl)-1-ethyl-5-(1-methoxypropyl)pyridin-2(1H)-one] | – | – | – | – | – | – | – | – | – | – | – | – | – | – | – | – | pest or weed control at 250 µg/mL [1]: > 50%; pest or weed control at 250 µg/mL (Phytophthora infestans): < 50%; pest or weed control at 250 µg/mL (Puccinia recondita; Brown rust on wheat): > 50%; pest or weed control at 250 ppm [2]: > 50%; pest or weed control at 250 µg/mL (Alternaia brassicicola; [3]): > 50%; pest or weed control at 250 ppm (Plasmopara viticola): > 50%; pest or weed control at 250 µg/mL (Botrytis cinerea): > 50%; pest or weed control at 250 µg/mL (Magnaporthe grisea): > 50% |
| CCn1c(-c2c(F)cccc2OC)c(CC(C)C)cc(Br)c1=O [compound 96] | H (more than 50% control value) | L (50% or less control value) | H (more than 50% control value) | H (more than 50% control value) | H (more than 50% control value) | L (50% or less control value) | H (more than 50% control value) | L (50% or less control value) | – | – | – | – | – | – | – | – | – |
| CCn1c(-c2c(F)cc(F)cc2F)c(C(C)(O)C(C)C)ccc1=O (centres unmarked) [compound 455] | – | – | – | – | – | – | – | – | – | – | – | – | – | – | – | – | Test D control value [1, 12]: H (more than 50% control value); Test F control value (Phytophthora infestans; [12]): L (50% or less control value); Test E control value (Puccinia recondita; [12]): H (more than 50% control value); Test H control value [2, 13]: H (more than 50% control value); Test C control value (Alternaia brassicicola; [12]): H (more than 50% control value); Test G control value (Plasmopara viticola; [14]): H (more than 50% control value); Test B control value (Botrytis cinerea; [12]): H (more than 50% control value); Test A control value (Magnaporthe grisea; [12]): L (50% or less control value) |
| CCCc1cc(Br)c(=O)n(CC)c1-c1ccc(F)cc1Br [compound 369] | – | – | – | – | – | – | – | – | H (more than 50% control value) | H (more than 50% control value) | H (more than 50% control value) | H (more than 50% control value) | H (more than 50% control value) | H (more than 50% control value) | H (more than 50% control value) | H (more than 50% control value) | – |
| CCCCCc1cc(Cl)c(=O)n(CC)c1-c1ccc(F)cc1Cl [compound 209] | – | – | – | – | – | – | – | – | H (more than 50% control value) | L (50% or less control value) | H (more than 50% control value) | H (more than 50% control value) | H (more than 50% control value) | H (more than 50% control value) | H (more than 50% control value) | H (more than 50% control value) | – |
| CCC(O)c1cc(Cl)c(=O)n(CC)c1-c1c(F)cccc1F (centres unmarked) [Compound No. 24, 3-chloro-6-(2,6-difluorophenyl)-1-ethyl-5-(1-hydroxypropyl)pyridin-2(1H)-one] | – | – | – | – | – | – | – | – | – | – | – | – | – | – | – | – | pest or weed control at 250 µg/mL [1]: > 50%; pest or weed control at 250 µg/mL (Phytophthora infestans): < 50%; pest or weed control at 250 µg/mL (Puccinia recondita; Brown rust on wheat): > 50%; pest or weed control at 250 ppm [2]: > 50%; pest or weed control at 250 µg/mL (Alternaia brassicicola; [3]): > 50%; pest or weed control at 250 ppm (Plasmopara viticola): < 50%; pest or weed control at 250 µg/mL (Botrytis cinerea): > 50%; pest or weed control at 250 µg/mL (Magnaporthe grisea): > 50% |
| CCn1c(-c2ccc(OCCOC)cc2F)c(CC(C)C)cc(Cl)c1=O [compound 121] | H (more than 50% control value) | L (50% or less control value) | H (more than 50% control value) | H (more than 50% control value) | H (more than 50% control value) | L (50% or less control value) | H (more than 50% control value) | H (more than 50% control value) | – | – | – | – | – | – | – | – | – |
| CCC(OC)c1cc(Cl)c(=O)n(C)c1-c1c(F)cc(F)cc1F (centres unmarked) [compound 502] | – | – | – | – | – | – | – | – | – | – | – | – | – | – | – | – | Test D control value [1, 12]: H (more than 50% control value); Test F control value (Phytophthora infestans; [12]): L (50% or less control value); Test E control value (Puccinia recondita; [12]): H (more than 50% control value); Test H control value [2, 13]: H (more than 50% control value); Test C control value (Alternaia brassicicola; [12]): H (more than 50% control value); Test G control value (Plasmopara viticola; [14]): H (more than 50% control value); Test B control value (Botrytis cinerea; [12]): H (more than 50% control value); Test A control value (Magnaporthe grisea; [12]): H (more than 50% control value) |
| CCn1c(-c2c(F)cccc2F)c(C(C)(CC)OC)cc(Cl)c1=O (centres unmarked) [Compound No. 29, 3-chloro-6-(2,6-difluorophenyl)-1-ethyl-5-(2-methoxybutan-2-yl)pyridin-2(1H)-one] | – | – | – | – | – | – | – | – | – | – | – | – | – | – | – | – | pest or weed control at 250 µg/mL [1]: > 50%; pest or weed control at 250 µg/mL (Phytophthora infestans): < 50%; pest or weed control at 250 µg/mL (Puccinia recondita; Brown rust on wheat): > 50%; pest or weed control at 250 ppm [2]: > 50%; pest or weed control at 250 µg/mL (Alternaia brassicicola; [3]): > 50%; pest or weed control at 250 ppm (Plasmopara viticola): > 50%; pest or weed control at 250 µg/mL (Botrytis cinerea): > 50%; pest or weed control at 250 µg/mL (Magnaporthe grisea): > 50% |
| CCn1c(-c2c(F)cc(OC)cc2F)c(C(C)(O)C(C)C)cc(Cl)c1=O (racemic) [compound 108] | H (more than 50% control value) | L (50% or less control value) | H (more than 50% control value) | H (more than 50% control value) | H (more than 50% control value) | H (more than 50% control value) | H (more than 50% control value) | H (more than 50% control value) | – | – | – | – | – | – | – | – | – |

— patent US11147272B2, “Pyridone compounds and agricultural and horticultural fungicides comprising the same as active ingredients” (MITSUI CHEMICALS AGRO, INC., priority 2017, dated 2021)
